Test [1] concerns Monocotyledonous and dicotyledonous test plants. Nature of the test: Example B1 herbicidal action, application post-emergence (Table B1a). Type of test: in vivo. Conditions: 250 g/ha, evaluated after 3 weeks, scale 0-10. The protocol:
Monocotyledonous and dicotyledonous test plants were sown in seed trays in standard soil. Immediately after sowing (pre-emergence) or after 8 to 9 days cultivation (post-emergence), the test compounds were applied by spraying in the form of an aqueous solution derived from the formulation of the technical active ingredient in 0.6 ml acetone and 45 ml formulation solution containing 10.6% Emulsogen EL (CAS RN 61791-12-6), 42.2% N-methylpyrrolidone, 42.2% dipropylene glycol monomethyl ether (CAS RN 34590-94-8) and 0.2% X-77 (CAS RN 11097-66-8). The test plants were then grown in a greenhouse under optimum conditions. After a test duration of 3 weeks (post-emergence) or 4 weeks (pre-emergence), the test was evaluated (10=total damage to plant, 0=no damage to plant).

Test [2] shares this test system. Briefly: Example B1 herbicidal action, application pre-emergence (Table B1b). Conditions: 250 g/ha, evaluated after 4 weeks. Type of test: in vivo. The method in brief: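 Visual damage rating, 10 = plant dead and 0 = unharmed, taken at 3 weeks for post-emergence and 4 weeks for pre-emergence treatment. Application by spray of formulated aqueous solution either immediately after sowing or at 8–9 days' growth, with mono- and dicot plants kept in a greenhouse.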

Regarding `CC1(C)CC(S(=O)(=O)C(Br)c2ccccc2C#N)=NO1` (racemic) [1.83], in test [1], the “herbicidal damage rating, Abutilon” value turned out to be 5; the “herbicidal damage rating, Amaranthus” value is 5; the “herbicidal damage rating, Digitaria” value is 9; the “herbicidal damage rating, Panicum” value came out at 7. Further, in test [1], the “herbicidal damage rating, Setaria” value came out at 7 and the “herbicidal damage rating, Sida” value stood at 3. Moreover, in test [2], the “herbicidal action (damage rating 0-10), Amaranthus” value (from here on “herbicidal action … Amaranthus”) is reported as 9; the “herbicidal action (damage rating 0-10), Digitaria” value (“herbicidal action … Digitaria” for short) worked out at 9; the “herbicidal action (damage rating 0-10), Panicum” value (“herbicidal action … Panicum” below) amounted to 10; the “herbicidal action (damage rating 0-10), Setaria” value (“herbicidal action … Setaria” for short) amounted to 9. Besides, the “herbicidal action (damage rating 0-10), Sida” value (from here on “herbicidal action … Sida”) in test [2] stood at 0.
As to `CC1(C)CC(S(=O)(=O)C(C)(F)c2c(F)cccc2F)=NO1` (centres unmarked) [1.55], in test [1], the “herbicidal damage rating, Abutilon” value amounted to 5; the “herbicidal damage rating, Amaranthus” value is recorded as 3; the “herbicidal damage rating, Digitaria” value turned out to be 6; the “herbicidal damage rating, Panicum” value worked out at 5. Also, in test [1], the “herbicidal damage rating, Setaria” value amounted to 7 and the “herbicidal damage rating, Sida” value is 3. Besides, in test [2], the “herbicidal action … Amaranthus” value was determined as 9; the “herbicidal action … Digitaria” value came out at 10; the “herbicidal action … Panicum” value was 10; the “herbicidal action … Setaria” value is 10. Moreover, in test [2], the “herbicidal action … Sida” value is recorded as 5.
With `Cn1nc(C(F)(F)F)c(C(Br)(Br)S(=O)(=O)C2=NOC(C)(C)C2)c1OCC(F)(F)F` [2.09], in test [1], the “herbicidal damage rating, Abutilon” value was 7; the “herbicidal damage rating, Amaranthus” value is on record as 7; the “herbicidal damage rating, Digitaria” value stood at 8; the “herbicidal damage rating, Panicum” value was 8. Further, in test [1], the “herbicidal damage rating, Setaria” value is 7 and the “herbicidal damage rating, Sida” value was found to be 2. Also, in test [2], the “herbicidal action … Amaranthus” value is on record as 10; the “herbicidal action … Digitaria” value is reported as 10; the “herbicidal action … Panicum” value came out at 10; the “herbicidal action … Setaria” value is listed as 10. The “herbicidal action … Sida” value in test [2] is listed as 8.
Take `Cn1nc(C(F)(F)F)c(C(F)(Cl)S(=O)(=O)C2=NOC(C)(C)C2)c1OCC(F)(F)F` (centres unmarked) [2.12]: in test [1], the “herbicidal damage rating, Abutilon” value is listed as 6; the “herbicidal damage rating, Amaranthus” value is 0; the “herbicidal damage rating, Digitaria” value was 6; the “herbicidal damage rating, Panicum” value is 7. For the same compound, in test [1], the “herbicidal damage rating, Setaria” value came to 7 and the “herbicidal damage rating, Sida” value is given as 6. Moreover, in test [2], the “herbicidal action … Amaranthus” value is listed as 10; the “herbicidal action … Digitaria” value came to 10; the “herbicidal action … Panicum” value worked out at 10; the “herbicidal action … Setaria” value was 10. Further, the “herbicidal action … Sida” value in test [2] is recorded as 8.
In the case of `CC1(C)CC(S(=O)(=O)C(F)(Cl)c2cc(F)ccc2F)=NO1` (centres unmarked) [1.126], in test [1], the “herbicidal damage rating, Abutilon” value was 3; the “herbicidal damage rating, Amaranthus” value is given as 0; the “herbicidal damage rating, Digitaria” value is on record as 8; the “herbicidal damage rating, Panicum” value came to 5. For the same compound, in test [1], the “herbicidal damage rating, Setaria” value worked out at 5 and the “herbicidal damage rating, Sida” value was 5. Besides, in test [2], the “herbicidal action … Amaranthus” value is recorded as 10; the “herbicidal action … Digitaria” value is recorded as 10; the “herbicidal action … Panicum” value is 10; the “herbicidal action … Setaria” value came to 10. Further, the “herbicidal action … Sida” value in test [2] stood at 8.
As to `Cn1nc(C(F)(F)F)c(C(Cl)S(=O)(=O)C2=NOC(C)(C)C2)c1OC(F)F` (centres unmarked) [2.16], in test [1], the “herbicidal damage rating, Abutilon” value is reported as 7; the “herbicidal damage rating, Amaranthus” value is 8; the “herbicidal damage rating, Digitaria” value is recorded as 4; the “herbicidal damage rating, Panicum” value is 0. In test [1], the “herbicidal damage rating, Setaria” value was 8 and the “herbicidal damage rating, Sida” value is on record as 7. In addition, in test [2], the “herbicidal action … Amaranthus” value was 10; the “herbicidal action … Digitaria” value is on record as 10; the “herbicidal action … Panicum” value is recorded as 10; the “herbicidal action … Setaria” value is given as 10. Moreover, the “herbicidal action … Sida” value in test [2] was determined as 7.
Turning to `CC1(C)CC(S(=O)(=O)C(F)(F)c2cccc(F)c2F)=NO1` [1.116], in test [1], the “herbicidal damage rating, Abutilon” value is recorded as 5; the “herbicidal damage rating, Amaranthus” value was found to be 5; the “herbicidal damage rating, Digitaria” value worked out at 8; the “herbicidal damage rating, Panicum” value is on record as 7. In test [1], the “herbicidal damage rating, Setaria” value is recorded as 7 and the “herbicidal damage rating, Sida” value worked out at 0. Also, in test [2], the “herbicidal action … Amaranthus” value was determined as 10; the “herbicidal action … Digitaria” value was determined as 10; the “herbicidal action … Panicum” value is 10; the “herbicidal action … Setaria” value is reported as 10. For the same compound, the “herbicidal action … Sida” value in test [2] came out at 7.
In the case of `COc1ccccc1C(F)(F)S(=O)(=O)C1=NOC(C)(C)C1` [1.107], in test [1], the “herbicidal damage rating, Abutilon” value was 4; the “herbicidal damage rating, Amaranthus” value is on record as 0; the “herbicidal damage rating, Digitaria” value is given as 8; the “herbicidal damage rating, Panicum” value came out at 7. In addition, in test [1], the “herbicidal damage rating, Setaria” value came out at 5 and the “herbicidal damage rating, Sida” value is listed as 5. Moreover, in test [2], the “herbicidal action … Amaranthus” value turned out to be 9; the “herbicidal action … Digitaria” value is given as 7; the “herbicidal action … Panicum” value came to 9; the “herbicidal action … Setaria” value is recorded as 10. The “herbicidal action … Sida” value in test [2] amounted to 0.
For the compound `Cn1nc(C(F)(F)F)c(C(Cl)S(=O)(=O)C2=NOC(C)(C)C2)c1Cl` (centres unmarked) [2.05], in test [1], the “herbicidal damage rating, Abutilon” value came to 4; the “herbicidal damage rating, Amaranthus” value is reported as 0; the “herbicidal damage rating, Digitaria” value came out at 3; the “herbicidal damage rating, Panicum” value came to 7. Further, in test [1], the “herbicidal damage rating, Setaria” value was found to be 0 and the “herbicidal damage rating, Sida” value was 3. In test [2], the “herbicidal action … Amaranthus” value is reported as 5; the “herbicidal action … Digitaria” value was found to be 9; the “herbicidal action … Panicum” value is given as 10; the “herbicidal action … Setaria” value amounted to 10. Moreover, the “herbicidal action … Sida” value in test [2] is given as 8.
Regarding `CCOC(=O)c1ccc(C(F)(F)S(=O)(=O)C2=NOC(C)(C)C2)c(F)c1` [1.120], in test [1], the “herbicidal damage rating, Abutilon” value is listed as 7; the “herbicidal damage rating, Amaranthus” value is 0; the “herbicidal damage rating, Digitaria” value was found to be 8; the “herbicidal damage rating, Panicum” value came to 3. In test [1], the “herbicidal damage rating, Setaria” value was 4 and the “herbicidal damage rating, Sida” value turned out to be 0. Also, in test [2], the “herbicidal action … Amaranthus” value stood at 8; the “herbicidal action … Digitaria” value is on record as 6; the “herbicidal action … Panicum” value is 8; the “herbicidal action … Setaria” value was determined as 0. For the same compound, in test [2], the “herbicidal action … Sida” value turned out to be 5.
In the case of `CC1(C)CC(S(=O)(=O)C(F)(Cl)c2cccc(F)c2F)=NO1` (centres unmarked) [1.148], in test [1], the “herbicidal damage rating, Abutilon” value was 0; the “herbicidal damage rating, Amaranthus” value amounted to 7; the “herbicidal damage rating, Digitaria” value amounted to 8; the “herbicidal damage rating, Panicum” value was determined as 8. In test [1], the “herbicidal damage rating, Setaria” value is 8 and the “herbicidal damage rating, Sida” value was 2. For the same compound, in test [2], the “herbicidal action … Amaranthus” value is given as 10; the “herbicidal action … Digitaria” value came to 10; the “herbicidal action … Panicum” value is 10; the “herbicidal action … Setaria” value was 10. In test [2], the “herbicidal action … Sida” value is listed as 6.
As for `Cc1ccc(F)c(C(F)S(=O)(=O)C2=NOC(C)(C)C2)c1F` (centres unmarked) [1.105], in test [1], the “herbicidal damage rating, Abutilon” value amounted to 2; the “herbicidal damage rating, Amaranthus” value stood at 5; the “herbicidal damage rating, Digitaria” value is 8; the “herbicidal damage rating, Panicum” value is 5. In addition, in test [1], the “herbicidal damage rating, Setaria” value was found to be 4 and the “herbicidal damage rating, Sida” value was 7. Further, in test [2], the “herbicidal action … Amaranthus” value is on record as 10; the “herbicidal action … Digitaria” value was 8; the “herbicidal action … Panicum” value stood at 10; the “herbicidal action … Setaria” value is on record as 10. Besides, the “herbicidal action … Sida” value in test [2] was determined as 7.
`Cc1ccc(F)c(C(F)(F)S(=O)(=O)C2=NOC(C)(C)C2)c1F` [1.108]: in test [1], the “herbicidal damage rating, Abutilon” value worked out at 7; the “herbicidal damage rating, Amaranthus” value amounted to 8; the “herbicidal damage rating, Digitaria” value turned out to be 8; the “herbicidal damage rating, Panicum” value is recorded as 5. Further, in test [1], the “herbicidal damage rating, Setaria” value worked out at 5 and the “herbicidal damage rating, Sida” value came to 8. In addition, in test [2], the “herbicidal action … Amaranthus” value worked out at 10; the “herbicidal action … Digitaria” value stood at 10; the “herbicidal action … Panicum” value was 10; the “herbicidal action … Setaria” value amounted to 10. The “herbicidal action … Sida” value in test [2] is 9.

The values above are taken from patent US8680290B2, “Isoxazoline derivatives and their use as herbicides” (Syngenta Limited, priority 2004, dated 2014).
